Among the data in PubChem BioAssay (NCI) are GI50 and TGI values, retold here.

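Each compound was tested at five concentrations against cells in 96-well plates for 48 hours. The concentration for 50% growth inhibition is given as GI50. The concentration for full growth arrest is given as TGI.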

Test systems include SF-295 CNS; NCI-H226 lung; NCI/ADR-RES ovarian; CAKI-1 renal; SNB-75 CNS; PC-3 prostate; MOLT-4 leukemia; KM12 colon; UACC-257 melanoma; HCT-116 colon.
Common to all, as to assay: NCI tumour cell line growth inhibition, 48 h

Take `Nc1nn(C(=O)Nc2ccc(Cc3ccccc3)cc2)c2ccccc12`: the GI50 with SF-295 CNS is 0.53 µM; in the experiment with NCI-H226 lung, 13.5 µM; in the experiment on NCI/ADR-RES ovarian, 7.87 µM; in the experiment on CAKI-1 renal, 21.1 µM; with SNB-75 CNS it was 17 µM; in the experiment with PC-3 prostate, 13.5 µM. The GI50 with MOLT-4 leukemia is 0.636 µM; in the experiment on KM12 colon it was 2.94 µM; with UACC-257 melanoma, 10 µM; in the experiment on HCT-116 colon it was 7.03 µM. Besides, the TGI in the experiment on SF-295 CNS is > 100 µM; in the experiment with NCI-H226 lung, 58.3 µM; in the experiment with NCI/ADR-RES ovarian, > 100 µM; in the experiment on CAKI-1 renal it was 58 µM; in the experiment on SNB-75 CNS, 47.4 µM; with PC-3 prostate, 51.1 µM. The TGI in the experiment with MOLT-4 leukemia is 20.4 µM; in the experiment on KM12 colon, > 100 µM; in the experiment on UACC-257 melanoma, 50.9 µM; in the experiment on HCT-116 colon, > 100 µM.
Take `COc1ccc2c(c1)CC[C@@H]1[C@@H]2CC[C@]2(C)c3c(cc(C(=O)c4ccccc4)c4sccc34)C[C@@H]12`: the GI50 in the experiment on SF-295 CNS is > 100 µM; in the experiment on NCI-H226 lung, > 100 µM; in the experiment with NCI/ADR-RES ovarian, > 100 µM; in the experiment on CAKI-1 renal, > 100 µM; with SNB-75 CNS it was 22.8 µM; with PC-3 prostate, 38.1 µM. Also, the GI50 with MOLT-4 leukemia, with KM12 colon, in the experiment on UACC-257 melanoma and with HCT-116 colon was > 100 µM throughout. The TGI in the experiment with SF-295 CNS, with NCI-H226 lung, in the experiment on NCI/ADR-RES ovarian, with CAKI-1 renal, in the experiment with SNB-75 CNS and in the experiment with PC-3 prostate was > 100 µM throughout. The TGI in the experiment with MOLT-4 leukemia, with KM12 colon, in the experiment with UACC-257 melanoma and in the experiment with HCT-116 colon was > 100 µM in each case.
On to `COc1ccc2oc(-c3ccc(Cl)cc3)c(N3CCN(C)CC3)c2c1`, for which the GI50 in the experiment with SF-295 CNS was 2.06 µM; in the experiment with NCI-H226 lung, 3.16 µM; in the experiment on NCI/ADR-RES ovarian, 2.19 µM; in the experiment with CAKI-1 renal it was 1.57 µM; in the experiment on SNB-75 CNS it was 1.48 µM; in the experiment on PC-3 prostate, 1.69 µM. Also, the GI50 with MOLT-4 leukemia was 2.28 µM; with KM12 colon it was 1.64 µM; in the experiment on UACC-257 melanoma, 1.68 µM; with HCT-116 colon, 1.98 µM. Moreover, the TGI with SF-295 CNS was found to be 5.12 µM; in the experiment with NCI-H226 lung it was 14.5 µM; in the experiment with NCI/ADR-RES ovarian, 5.46 µM; in the experiment on CAKI-1 renal, 3.27 µM; in the experiment on SNB-75 CNS it was 4.01 µM; with PC-3 prostate, 5.54 µM. The TGI was 6.95 µM in the experiment on MOLT-4 leukemia, 3.27 µM in the experiment on KM12 colon, 3.43 µM in the experiment with UACC-257 melanoma and 4.59 µM in the experiment on HCT-116 colon.
For `CSc1ccc2c(c1)C(=O)c1c-2n(CCCN=[N+]=[N-])c(=O)c2cc([N+](=O)[O-])ccc12`, the GI50 with SF-295 CNS is 0.553 µM; in the experiment on NCI-H226 lung, 8.74 µM; in the experiment on NCI/ADR-RES ovarian it was 3.15 µM; in the experiment with CAKI-1 renal, 2.33 µM; in the experiment with SNB-75 CNS, 7.42 µM; in the experiment with PC-3 prostate, 5.58 µM. The GI50 in the experiment with MOLT-4 leukemia was 0.371 µM; in the experiment with UACC-257 melanoma it was 39.9 µM; in the experiment on HCT-116 colon, 1.69 µM. Also, the TGI in the experiment on SF-295 CNS is > 52.1 µM; with NCI-H226 lung, > 100 µM; in the experiment on NCI/ADR-RES ovarian, > 100 µM; with CAKI-1 renal, > 66.5 µM; in the experiment on SNB-75 CNS, > 79.7 µM; in the experiment on PC-3 prostate, > 100 µM. In addition, the TGI in the experiment with MOLT-4 leukemia is 6.38 µM; with KM12 colon, > 100 µM; in the experiment with UACC-257 melanoma, > 100 µM; with HCT-116 colon it was > 100 µM.
As for `C#Cc1ccc(-n2c(/C=C/c3ccc4ccccc4n3)nc3ncccc3c2=O)cc1`, the GI50 in the experiment on SF-295 CNS was 0.386 µM; in the experiment on NCI-H226 lung it was 0.408 µM; with NCI/ADR-RES ovarian it was 0.338 µM; with CAKI-1 renal, 0.501 µM; in the experiment on SNB-75 CNS, 0.389 µM; in the experiment with PC-3 prostate, 0.341 µM. Besides, the GI50 was 0.456 µM with MOLT-4 leukemia, 0.359 µM with KM12 colon, 0.436 µM in the experiment with UACC-257 melanoma and 0.346 µM in the experiment with HCT-116 colon. In addition, the TGI in the experiment with SF-295 CNS was 1.52 µM; in the experiment on NCI-H226 lung it was 1.37 µM; with NCI/ADR-RES ovarian it was 1.23 µM; in the experiment on CAKI-1 renal, 2.69 µM; with SNB-75 CNS, 1.45 µM; with PC-3 prostate, 1.75 µM. The TGI is > 100 µM in the experiment with MOLT-4 leukemia, 1.26 µM in the experiment with KM12 colon, 1.92 µM in the experiment on UACC-257 melanoma and 1.2 µM in the experiment with HCT-116 colon.
On to `Cn1cc(C2=C(c3cccc(NCC(O)CO)c3)C(=O)NC2=O)c2cc(Cl)ccc21` (centres undefined), for which the GI50 is 0.237 µM in the experiment with SF-295 CNS; 3.34 µM with NCI-H226 lung; 12.5 µM in the experiment with NCI/ADR-RES ovarian; 2.56 µM with CAKI-1 renal; 3.45 µM with SNB-75 CNS; 2.88 µM in the experiment with PC-3 prostate. Further, the GI50 was 4.2 µM in the experiment with MOLT-4 leukemia, 2.45 µM in the experiment on KM12 colon, 5.51 µM in the experiment on UACC-257 melanoma and 2.4 µM with HCT-116 colon. Also, the TGI was 8.94 µM with SF-295 CNS; 11.9 µM in the experiment with NCI-H226 lung; > 25 µM with NCI/ADR-RES ovarian; 13.2 µM in the experiment on CAKI-1 renal; 9.55 µM with SNB-75 CNS; 12.9 µM in the experiment with PC-3 prostate. Also, the TGI is 18 µM in the experiment with MOLT-4 leukemia, 9.5 µM with KM12 colon, 15.4 µM in the experiment with UACC-257 melanoma and > 25 µM in the experiment with HCT-116 colon.
Take `O=C(Nc1cccc(-n2cc(-c3ccncc3)c(-c3ccc(O)c(Cl)c3)n2)c1)Nc1ccc(Cl)c(C(F)(F)F)c1`: the GI50 in the experiment on SF-295 CNS was 1.88 µM; in the experiment on NCI-H226 lung, 2.02 µM; with NCI/ADR-RES ovarian it was 2.96 µM; in the experiment on CAKI-1 renal, 2.02 µM; with SNB-75 CNS it was 1.23 µM; with PC-3 prostate it was 1.77 µM. Besides, the GI50 with MOLT-4 leukemia is 1.64 µM; with KM12 colon, 1.61 µM; in the experiment with UACC-257 melanoma, 1.98 µM; in the experiment with HCT-116 colon it was 2.4 µM. Besides, the TGI was determined as 5.12 µM in the experiment with SF-295 CNS; 4.46 µM in the experiment on NCI-H226 lung; 9.03 µM in the experiment with NCI/ADR-RES ovarian; 7.33 µM with CAKI-1 renal; 6.85 µM in the experiment with SNB-75 CNS; 4.36 µM in the experiment on PC-3 prostate. For the same compound, the TGI in the experiment with MOLT-4 leukemia amounted to 4.65 µM; in the experiment with KM12 colon it was 3.26 µM; in the experiment on UACC-257 melanoma, 4.39 µM; in the experiment with HCT-116 colon, 8.21 µM.
